In PubChem BioAssay (NCI) one finds TGI data, which are given here for five compounds.

Assay in all cases: NCI tumour cell line growth inhibition, 48 h
Assay [1] deals with P388/ADR leukemia.
The test system of assay [2] is SN12K1 renal.
In assay [3] the test system is P388 leukemia.
The subject of assay [4] is DU-145 prostate.
Assay [5] concerns T-47D breast.
Assay [6] relates to HS 578T breast.
Assay [7] concerns PC-3 prostate.
Assay [8] concerns MDA-N.
Assay [9] relates to BT-549 breast.
In assay [10] the test system is MDA-MB-231 breast.
The subject of assay [11] is RXF-631 renal.

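A five-concentration, 48-hour dose response in 96-well plates underlies each endpoint, interpolated linearly between surrounding concentrations. At the TGI there is no net growth.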 Bounds are passed on as bounds.

For `COc1ccccc1Cc1nc(-c2ccccc2)nn(C2OC(COC(C)=O)C(OC(C)=O)C(OC(C)=O)C2OC(C)=O)c1=S` (stereo not drawn), the TGI was above 100 µM in [1], above 53.4 µM in assay [2] and above 100 µM in assay [3].
For the compound `Cc1cn(Cc2cnnn2CC2OC(n3cc(C)c(=O)[nH]c3=O)CC2O)c(=O)[nH]c1=O` (stereo not drawn), the TGI in assay [4], in assay [5], in assay [6], in assay [7], in assay [8] and in assay [9] was above 100 µM throughout. The compound also displayed a TGI in assay [10] above 100 µM.
On to `COc1ccc(C(=O)Cc2ccc(Br)cc2)cc1OC`, for which the TGI in assay [11] was above 100 µM.
Still for that read-out and setting: under `CCOC(=O)Cc1cc(OC)c(OC)cc1/C(Cl)=C(\C=O)c1ccc(OC)c(OC)c1` stands 49 µM.
Consider `NCCCN(CCCN)CCN(CCN(CCCN)CCCN)CCN(CCCN)CCCN`, for which the TGI is above 100 µM in [4]; above 100 µM in [5]; 58.5 µM in assay [6]; above 100 µM in assay [7]; above 100 µM in assay [8]; above 100 µM in assay [10].
